Reference: patent US20140294729A1, “METHODS FOR IDENTIFICATION AND USE OF AGENTS TARGETING CANCER STEM CELLS” (Whitehead Institute for Biomedical Research, priority 2008, published 2014)
“Also recorded” adds a separate entry of the source.

Assays:
Assay type in all cases: cell-based, human
HMLEshEcad cells [1] = experiment: High-throughput chemical screen for selective toxicity, HMLEshEcad vs HMLEshCntrl (ATP luminescence viability); details: for most compounds 10 uM, 3 days, duplicate
Procedure: We screened compounds for cytotoxicity against both HMLEshEcad and control HMLEshCntrl cells. Cells were seeded in 384-well plates, allowed to grow for one day, treated with compound and assayed for cell viability after three days using a luminescence assay; compounds were screened in duplicate for each cell line (FIG. 3A; See Example 3). We screened a collection of ˜16,000 compounds, including many with known bioactivity, natural extracts, modulators of histone deacetylases, and several diverse commercial libraries.
We developed conditions to use an ATP-based luminescence viability assay with 384-well plates in high throughput screening (see Example 3 for Methods). We screened a total of 16,000 compounds as part of our screen. […]
Using the measurements from the plate-normalized DMSO control wells, we constructed the distribution of luminescence intensities for each cell line in the absence of compound (FIG. 3A). […]
Information about the general automated HTS protocol is available online at broad.harvard.edu/chembio/index.html. […] For most compounds the final concentration in each well was calculated to be 10 uM.
The screen was performed in duplicate. […] The luminescent signal from each plate was detected using an automated plate reader (Perkin-Elmer Envision 1; Wellesley, Mass.). […]

HMLEshEcad cells [2] = experiment: Dose-response viability of HMLEshCntrl vs HMLEshEcad cells (validation of hits, 384-well, Cell-Titer-Glo); details: FIG. 4A; for selective toxicity towards HMLEshEcad cells relative to HMLEshCntrl cells: dose response on retesting
Procedure: (§1) FIG. 4A depicts dose response curves of HMLEshCntrl (A, light gray curve) and HMLEshEcad (A, dark gray curve) cells treated with the 8 compounds identified during the initial screen. 1000 cells of each line were seeded onto 384 well plates and treated with 8 different concentrations of compounds within a 2.5 log range. The cell viability after 3 day treatment was measured by Cell-Titer-Glo. […] FIG. 4B depicts dose response curves of HMLEshCntrl (curve with square data points) and HMLE-Twist (curve with triangular data points) cells treated with the same compounds as in (A). Note that selectivity of Salinomycin, Abamectin, Etoposide and Nigericin (Top, Left-to-Right) is retained even though a different method of EMT induction is used. […] 1 Day after seeding DMSO, Salinomycin (1.25 or 5 μM) or Abamectin (0.25 or 1.25 μM) was added at the indicated concentration. As the GFP vector contains a Blasticidin resistance gene, we used Blasticidin treatment as a positive control for the expansion of GFP-expressing control HMLE cells. After 3 day incubation the mix population of cells were analyzed by flow cytometry and the percentage of GFP-positive cells were determined. […] FIG. 4D depicts dose response curves of transformed HMLERshCntrl (light gray line) and HMLERshEcad (dark gray lines) cells treated with Salinomycin and Abamectin. Dotted line denotes the 50% fraction surviving.
We pursued 8 of the 32 compounds for further study and evaluated their effects across a range of doses.
For each of these compounds, we evaluated the effect on cell viability across a series of doses for sibling cell lines either induced into or not induced into EMT.
Information about the general automated HTS protocol is available online at broad.harvard.edu/chembio/index.html. The assay was initiated by plating 40 μL of medium containing 1000 cells/well into white 384-well opaque-bottom plates (Nunc, Rochester, N.Y.) using an automated plate filler (Bio-Tek μFiller; Winsooki, Vt.) and allowing the cells to adhere for 24 hours. 100 nL of compound stock solutions in dmso was transferred from stock plates into the 384-well assay plates using an automated pin-based compound transfer robot (CyBio CyBi-Well vario; Woburn, Mass.). For most compounds the final concentration in each well was calculated to be 10 uM.
The screen was performed in duplicate. For negative controls, entire dmso-treated control plates were employed, in addition to dmso-only control wells that were incorporated into each compound assay plate. The cells were assayed for luciferase activity with the addition 20 ul of CellTiter-Glo Luminescent Cell Viability Assay solution (Promega). The luminescent signal from each plate was detected using an automated plate reader (Perkin-Elmer Envision 1; Wellesley, Mass.).
(§2) Individual compounds were purchased from Sigma and dissolved in DMSO with the exception of nigericin which was dissolved in 100% ethanol. Activity of the compounds were quantified by generating dose-response curves for HMLE-shCntrl, HMLE-shEcad and HMLE-Twist under the same cell density and culture conditions described for the initial screen, using the 384-well plate based system.

HMLE-Twist cells = experiment: Dose-response viability of HMLEshCntrl vs HMLE-Twist cells; details: EMT induced by Twist, FIG. 4B
Procedure: as §1, §2

Structure (SMILES) | specific toxicity towards HMLEshEcad (siEcad) line in the primary screen (HMLEshEcad cells [1]) | IC50 fold lower for HMLEshEcad cells vs HMLEshCntrl cells (HMLEshEcad cells [2]; 3 day treatment, 8 concentrations) [fold] | selective toxicity towards HMLEshEcad cells relative to HMLEshCntrl cells (HMLEshEcad cells [2]) | selective toxicity towards HMLEshEcad cells relative to HMLEshCntrl cells (HMLEshEcad cells [2]; listed as Etoposide) | selectivity for HMLE-Twist cells vs HMLEshCntrl; dose-response curves compared with HMLEshEcad (HMLE-Twist cells)
CN(Cc1cnc2nc(N)nc(N)c2n1)c1ccc(C(=O)N[C@@H](CCC(=O)O)C(=O)O)cc1 [methotrexate] | did score positively |  |  |  | 
COc1cc([C@@H]2c3cc4c(cc3[C@@H](O[C@@H]3O[C@@H]5CO[C@@H](C)O[C@H]5[C@H](O)[C@H]3O)[C@H]3COC(=O)[C@H]23)OCO4)cc(OC)c1O [etoposide] | did score positively | ~10 | moderate to strong selectivity; also recorded: strong specificity | selective toxicity | is retained
